Here are results for three compounds from paper PMC5998028, “Synthesis, antimicrobial activity and conformational analysis of the class IIa bacteriocin pediocin PA-1 and analogs thereof” (Scientific Reports, 2018).

One assay has as its system M. luteus ATCC 10240. The assay can be described thus: Antimicrobial assay. The assay is classed as cell-based, Micrococcus luteus. The following applies: at up to 100 µM.
In assay [1] the test system is Enterococcus hirae ATCC 10541. In words: MIC micro-dilution assay. The format is cell-based. The following applies: BHI, 37 °C, 18 h. (Broth dilution looks for growth in wells or tubes with falling amounts of substance.)
For assay [2], the system named is Bacillus subtilis ATCC 6633. In words: MIC micro-dilution assay. The format is cell-based. The following applies: MH, 37 °C, 18 h.
Assay [3] deals with Lactobacillus acidophilus ATCC 4356. The assay can be described thus: MIC micro-dilution assay. The assay is classed as cell-based. Particulars: MRS, 37 °C, 18 h.
The subject of assay [4] is Bacillus coagulans ATCC 7050. The assay can be described thus: MIC micro-dilution assay. The assay is classed as cell-based. Particulars: MH, 37 °C, 18 h.
Assay [5] relates to Staphylococcus aureus ATCC 25923. In words: MIC micro-dilution assay. The assay is classed as cell-based. Particulars: MH, 37 °C, 18 h.
In assay [6] the test system is Streptococcus thermophilus RBL 18 FYE 41. In words: MIC micro-dilution assay. The assay is classed as cell-based. The following applies: MH, 37 °C, 18 h.
In assay [7] the test system is Bifidobacterium animalis ATCC 27536. The assay can be described thus: MIC micro-dilution assay. The format is cell-based. Particulars: RCM, 37 °C, 18 h.
Assay [8] concerns Clostridium tyrobutiricum ATCC 25755. In words: MIC micro-dilution assay. Particulars: RCM, 37 °C, 18 h. The assay is classed as cell-based, Clostridium tyrobutyricum.
The test system of assay [9] is Staphylococcus aureus ATCC 29213. In words: MIC micro-dilution assay. The format is cell-based. Particulars: MH, 37 °C, 18 h.
Assay [10] concerns Staphylococcus aureus ATCC 6538. In words: MIC micro-dilution assay. The format is cell-based. Particulars: MH, 37 °C, 18 h.
The subject of assay [11] is Bacillus cereus LSPQ 2872. The assay can be described thus: MIC micro-dilution assay. The following applies: MH, 37 °C, 18 h. The assay is classed as cell-based.
The subject of assay [12] is Enteroccocus faecalis ATCC 27275. In words: MIC micro-dilution assay. The format is cell-based, Enterococcus faecalis. The following applies: BHI, 37 °C, 18 h.
Another assay deals with C. perfringens. The format is cell-based, Clostridium perfringens. The following applies: radial diffusion assays, RCM.
Assay [13] deals with Lactococcus lactis ATCC 19257. The assay can be described thus: MIC micro-dilution assay. The format is cell-based. The following applies: MRS, 37 °C, 18 h.
Assay [14] deals with Escherichia coli ATCC 25922. In words: MIC micro-dilution assay. The assay is classed as cell-based. Particulars: MH, 37 °C, 18 h.
Assay [15] deals with L. monocytogenes ATCC 19111. The following applies: micro-dilution, twofold serial dilutions, 37 °C, 18 h, absorbance 595 nm, means of two independent experiments in duplicate.
Assay [16] concerns L. monocytogenes ATCC 19111. The following applies: L. monocytogenes ATCC 19111, soft agar TSBYE; 75 µL of 1 mg/mL peptide (or UL5 culture supernatant) per well; 37 °C, 18 h.
The subject of assay [17] is L. ivanovii HPB28, L. monocytogenes LSD530, L. monocytogenes ATCC 19111. The following applies: L. ivanovii HPB28, L. monocytogenes LSD530 and ATCC 19111; micro-dilution, 37 °C, 18 h.
The test system of a further assay is L. monocytogenes LSD530. The following applies: micro-dilution, twofold serial dilutions, 37 °C, 18 h, absorbance 595 nm, means of two independent experiments in duplicate.
The next assay relates to L. ivanovii HPB28. The following applies: micro-dilution, twofold serial dilutions, 37 °C, 18 h, absorbance 595 nm, means of two independent experiments in duplicate.
The subject of the next assay is P. acidilactici UL5. The assay can be described thus: MIC micro-dilution assay. The format is cell-based, Pediococcus acidilactici. Particulars: P. acidilactici UL5 (pediocin producer, immune), 37 °C, 18 h, absorbance 595 nm, means of two independent experiments in duplicate.

For `CC[C@H](C)[C@@H]1NC(=O)[C@@H](NC(=O)[C@@H](NC(=O)[C@@H](NC(=O)[C@H](C)NC(=O)[C@H](CCCCN)NC(=O)CNC(=O)[C@H](Cc2c[nH]c3ccccc23)NC(=O)[C@H](CC(=O)O)NC(=O)[C@@H](NC(=O)[C@H](CO)NC(=O)[C@@H]2CSSC[C@H](NC(=O)[C@@H](NC(=O)[C@@H](NC(=O)CNC(=O)[C@H](CC(N)=O)NC(=O)CNC(=O)[C@H](Cc3ccc(O)cc3)NC(=O)[C@H](Cc3ccc(O)cc3)NC(=O)[C@@H](N)CCCCN)C(C)C)[C@@H](C)O)C(=O)NCC(=O)N[C@@H](CCCCN)C(=O)N[C@@H](Cc3c[nH]cn3)C(=O)N[C@@H](CO)C(=O)N2)C(C)C)[C@@H](C)O)[C@@H](C)O)CSSC[C@@H](C(=O)O)NC(=O)[C@H](CCCCN)NC(=O)[C@H](Cc2c[nH]cn2)NC(=O)[C@H](CC(N)=O)NC(=O)CNC(=O)[C@H](CCC(N)=O)NC(=O)[C@H](Cc2c[nH]cn2)NC(=O)CNC(=O)CNC(=O)[C@H]([C@@H](C)O)NC(=O)[C@H](C)NC(=O)[C@H](Cc2c[nH]c3ccccc23)NC(=O)[C@H](C)NC(=O)[C@H](CCSC)NC(=O)[C@H](C)NC(=O)CNC(=O)[C@H](CC(N)=O)NC(=O)[C@H](CC(N)=O)NC(=O)[C@H]([C@@H](C)CC)NC1=O` [3c, pediocin PA-1], in the assay on M. luteus ATCC 10240, the “activity against M. luteus ATCC 10240” value is recorded as “no activity”.

In the case of `CC[C@H](C)[C@H](NC(=O)[C@H](CS)NC(=O)[C@@H](NC(=O)[C@@H](NC(=O)[C@H](C)NC(=O)[C@H](CCCCN)NC(=O)CNC(=O)[C@H](Cc1c[nH]c2ccccc12)NC(=O)[C@H](CC(=O)O)NC(=O)[C@@H](NC(=O)[C@H](CO)NC(=O)[C@H](CS)NC(=O)[C@H](CO)NC(=O)[C@H](Cc1c[nH]cn1)NC(=O)[C@H](CCCCN)NC(=O)CNC(=O)[C@H](CS)NC(=O)[C@@H](NC(=O)[C@@H](NC(=O)CNC(=O)[C@H](CC(N)=O)NC(=O)CNC(=O)[C@H](Cc1ccc(O)cc1)NC(=O)[C@H](Cc1ccc(O)cc1)NC(=O)[C@@H](N)CCCCN)C(C)C)[C@@H](C)O)C(C)C)[C@@H](C)O)[C@@H](C)O)C(=O)N[C@H](C(=O)N[C@@H](CC(N)=O)C(=O)N[C@@H](CC(N)=O)C(=O)NCC(=O)N[C@@H](C)C(=O)N[C@@H](CC(C)C)C(=O)N[C@@H](C)C(=O)N[C@@H](Cc1c[nH]c2ccccc12)C(=O)N[C@@H](C)C(=O)N[C@H](C(=O)NCC(=O)NCC(=O)N[C@@H](Cc1c[nH]cn1)C(=O)N[C@@H](CCC(N)=O)C(=O)NCC(=O)N[C@@H](CC(N)=O)C(=O)N[C@@H](Cc1c[nH]cn1)C(=O)N[C@@H](CCCCN)C(=O)N[C@@H](CS)C(=O)O)[C@@H](C)O)[C@@H](C)CC` [compound 4], the MIC entry in assay [1], in [2], in [3], in assay [4], in assay [5] and in [6] was “n.a. (no activity detected at concentrations up to 100 µM)” in each case. Moreover, the MIC entry in assay [7], in assay [8], in [9], in assay [10], in assay [11] and in [12] was “n.a. (no activity detected at concentrations up to 100 µM)” in each case. Besides, the MIC entry in [13] and in assay [14] was “n.a. (no activity detected at concentrations up to 100 µM)” each time. The “inhibition diameters against C. perfringens, range over two strains” value in the assay on C. perfringens is 22–25 mm.

With “KYYGNGVTAGKHSASVDWGKATTAIINNGAMAWATGGHQGNHKA [compound 6, linear analog with all four cysteine residues replaced by alanine]”, the Minimal inhibitory concentration result in [15] is on record as “n.a. (no activity detected at concentrations up to 100 µM)”; with L. monocytogenes LSD530, “n.a. (no activity detected at concentrations up to 100 µM)”; with L. ivanovii HPB28 it was “n.a.^a (no activity detected at concentrations up to 100 µM)”; in the assay on P. acidilactici UL5 it was “n.a. (no activity detected at concentrations up to 100 µM)”. Also, in [16], the Inhibition zone diameter result is “no activity”. The “MIC, range over the Listeria target strains” value in [17] is “completely inactive”.
